Test results: patent US8236762B2, “Peptide-cytotoxic conjugates” (IPSEN Pharma S.A.S., priority 2006, dated 2012)
Entries after “also recorded” stand apart in the source; their conditions may differ. Numbered stars: 1 amine (or outer) side, 2 acyl side, 3 side chain; on linkers, the order of the positions; unused ones are H or OH. Bridge positions count the residues as written; N and C are the ends. Square brackets hold non-standard residues; d marks the D form. Peptide text beside a SMILES is read from it. * marks the point of attachment. X1 = CC[C@@]1(O*)C(=O)OCc2c1cc1n(c2=O)Cc2cc3ccccc3nc2-1; Tyr(3-I) = N[C@@H](Cc1ccc(O)c(I)c1)C(=O)O; Glutaryl = O=C(CCCC(=O)[*:2])[*:1]; Abu = CC[C@H](N)C(=O)O; AEEA = NCCOCCOCC(=O)O

Assays:
NCI-H69 cells = assay: In vivo growth assay, NCI-H69 small cell lung carcinoma xenograft in nude mice; design: species or system human; settings: female athymic nude mice, qwk×3, i.v.
Protocol: The mice were housed in microisolators on a 12-hour light cycle at 22° C. (72° F.) and 40%-60% humidity.
Mice were implanted subcutaneously in the flank with 5×10^6 cells of NCI-H69 cells along with an equal volume of Matrigel® Matrix (BD Biosciences, San Jose, Calif., U.S.A.), a solubilized basement membrane preparation extracted from EHS mouse sarcoma, a tumor rich in ECM proteins. The tumors were monitored initially twice weekly and then daily as the neoplasms reached the desired size of approximately 100 mm^3, (100 mg). When the small cell lung carcinomas attained the desired size in calculated tumor weight, the animals were pair-matched on Day 1 into various treatment groups. The estimated tumor weight was calculated using the formula:
[formula] where w=width and l=length, both measured in mm, of a small cell lung carcinoma.
Animals with tumors were then subject to either no treatment at all, treatment with a vehicle control (either saline or water), treatment with a camptothecin only control (7.5 mg/kg) or treatment with a compound according to Formula I or II as discussed above. All treatments were administered intravenously.

hSSTR-3 = biological target: T1, hSSTR-3 (Homo sapiens, UniProt P32745); assay: Somatostatin receptor radioligand binding, hSSTR-3 (CHO-K1 membranes); settings: read-out: Ki hSSTR3 ± (SEM)
T1 construct: expressed in transfected cells; host or cells: CHO-K1
T1 sequence (P32745 whole entry): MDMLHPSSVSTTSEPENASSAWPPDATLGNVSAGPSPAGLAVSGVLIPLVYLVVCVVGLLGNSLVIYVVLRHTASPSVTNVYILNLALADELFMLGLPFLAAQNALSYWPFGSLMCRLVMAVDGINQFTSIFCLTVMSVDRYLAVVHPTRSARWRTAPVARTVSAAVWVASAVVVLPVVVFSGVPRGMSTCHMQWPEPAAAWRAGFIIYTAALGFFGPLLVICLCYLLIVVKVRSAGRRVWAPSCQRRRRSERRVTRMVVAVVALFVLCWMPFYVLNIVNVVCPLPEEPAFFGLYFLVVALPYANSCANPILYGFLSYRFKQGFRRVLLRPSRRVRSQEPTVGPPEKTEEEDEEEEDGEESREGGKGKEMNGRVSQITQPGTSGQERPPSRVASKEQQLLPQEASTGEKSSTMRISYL
Protocol: (§3) Membranes for in vitro receptor binding assays were obtained by homogenizing (Polytron setting 6, 15 sec) CHO-K1 cells expressing human somatostatin receptor subtypes hSSTR-1, hSSTR-2, hSSTR-3, hSSTR-4 or hSSTR-5 in ice-cold 50 mM Tris-HCl. The homogenized cells were centrifuged twice at 39,000 g for 10 minutes with an intermediate resuspension in fresh buffer. The final pellets were resuspended in 10 mM Tris-HCl to prepare the cell membrane homogenate for use in the binding assay.
(§4) For the hSSTR-1, hSSTR-3, and hSSTR-4 assays, aliquots of the membrane preparations were incubated for 90 minutes at 25° C. with 0.05 nM [^125I-Tyr11]SRIF-14 in 50 mM HEPES (pH 7.4) buffer containing 0.2% BSA and 5 mM MgCl2. The final assay volume was 0.3 ml. For the hSSTR-2 and hSSTR-5 assays, [^125I]-[4-(2-hydroxyethyl)]-1-piperazinylacetyl-D-Phe-c(Cys-Tyr-D-Trp-Lys-Abu-Cys)-Thr-NH2 (0.05 nM) and [^125I]-D-Phe-c(Cys-Tyr-D-Trp-Lys-Val-Cys)-Thr-NH2 were employed as the radioligands, respectively.
(§5) The cell membrane homogenate was incubated with the radioligands for 90 minutes at 25° C. The incubations were terminated by rapid filtration through GF/C filters pre-soaked in 0.3% polyethylenimine using a Brandel® filtration manifold (Gaithersberg, Md., U.S.A.). Each tube and filter was washed three times with 5-ml aliquots of ice-cold buffer. Specific binding was defined as the total radioligand bound minus that bound in the presence of 1000 nM SRIF-14 (for hSSTR-1, hSSTR-3, hSSTR-4 or hSSTR-5), or 1000 nM DPhe-c(Cys-Tyr-D-Trp-Lys-Abu-Cys)-Thr-NH2 for hSSTR-2.

[1] = Half-life determination in human plasma (LC-MS); format: in vitro ADME; settings: 37° C.
Procedure, shortened: (§1)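 Compound samples of about 50–500 μg/ml were added to 450 μl human or mouse plasma and incubated at 37 °C. Aliquots taken from 0 to 48 h were precipitated with acetonitrile. Supernatants were analysed by LC-MS (positive-mode ESI, C8 column, acetic acid water/acetonitrile gradient).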

hSSTR-1 = biological target: T2, hSSTR-1 (Homo sapiens, UniProt P30872); assay: Somatostatin receptor radioligand binding, hSSTR-1 (CHO-K1 membranes); settings: read-out: Ki hSSTR1 ± (SEM)
T2 construct: expressed in transfected cells; host or cells: CHO-K1
T2 sequence (P30872 whole entry): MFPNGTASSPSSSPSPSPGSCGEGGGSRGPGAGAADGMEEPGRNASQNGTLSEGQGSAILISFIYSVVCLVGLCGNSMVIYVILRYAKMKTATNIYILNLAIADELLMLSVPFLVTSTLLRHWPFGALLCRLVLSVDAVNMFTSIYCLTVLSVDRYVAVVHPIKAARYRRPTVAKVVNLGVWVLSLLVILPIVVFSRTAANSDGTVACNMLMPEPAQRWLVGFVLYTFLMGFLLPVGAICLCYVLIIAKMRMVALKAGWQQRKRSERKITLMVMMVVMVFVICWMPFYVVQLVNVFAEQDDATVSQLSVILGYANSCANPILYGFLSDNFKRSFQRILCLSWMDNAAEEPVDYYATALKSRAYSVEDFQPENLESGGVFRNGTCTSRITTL

hSSTR-2 = biological target: T3, hSSTR-2 (Homo sapiens, UniProt P30874); assay: Somatostatin receptor radioligand binding, hSSTR-2 (CHO-K1 membranes); settings: read-out: Ki hSSTR2 ± (SEM)
T3 construct: expressed in transfected cells; host or cells: CHO-K1
T3 sequence (P30874 whole entry): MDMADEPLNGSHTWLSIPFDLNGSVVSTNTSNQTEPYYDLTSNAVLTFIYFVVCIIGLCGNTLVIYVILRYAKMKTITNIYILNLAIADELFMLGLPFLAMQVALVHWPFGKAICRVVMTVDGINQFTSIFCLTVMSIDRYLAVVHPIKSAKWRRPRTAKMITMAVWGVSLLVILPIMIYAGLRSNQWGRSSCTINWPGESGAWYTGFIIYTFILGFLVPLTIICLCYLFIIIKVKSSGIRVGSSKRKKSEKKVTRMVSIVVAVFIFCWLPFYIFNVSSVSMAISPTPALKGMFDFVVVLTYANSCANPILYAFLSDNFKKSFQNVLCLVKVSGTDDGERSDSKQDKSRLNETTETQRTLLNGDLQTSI
Protocol: as §3, §4, §5

hSSTR-4 = biological target: T4, hSSTR-4 (Homo sapiens, UniProt P31391); assay: Somatostatin receptor radioligand binding, hSSTR-4 (CHO-K1 membranes); settings: read-out: Ki hSSTR4 ± (SEM)
T4 construct: expressed in transfected cells; host or cells: CHO-K1
T4 sequence (P31391 whole entry): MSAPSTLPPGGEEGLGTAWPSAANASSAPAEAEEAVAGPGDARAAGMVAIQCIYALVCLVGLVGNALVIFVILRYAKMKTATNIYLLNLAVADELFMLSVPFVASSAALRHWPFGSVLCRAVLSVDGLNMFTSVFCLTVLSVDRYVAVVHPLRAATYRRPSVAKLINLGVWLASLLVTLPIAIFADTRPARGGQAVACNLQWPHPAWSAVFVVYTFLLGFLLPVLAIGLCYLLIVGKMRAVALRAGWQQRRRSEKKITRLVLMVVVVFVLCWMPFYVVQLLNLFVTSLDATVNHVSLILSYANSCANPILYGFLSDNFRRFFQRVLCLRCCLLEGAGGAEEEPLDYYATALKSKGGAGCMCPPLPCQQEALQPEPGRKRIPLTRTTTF
Protocol: as §3, §4, §5

hSSTR-5 = biological target: T5, hSSTR-5 (Homo sapiens, UniProt P35346); assay: Somatostatin receptor radioligand binding, hSSTR-5 (CHO-K1 membranes); settings: read-out: Ki hSSTR5 ± (SEM)
T5 construct: expressed in transfected cells; host or cells: CHO-K1
T5 sequence (P35346 whole entry): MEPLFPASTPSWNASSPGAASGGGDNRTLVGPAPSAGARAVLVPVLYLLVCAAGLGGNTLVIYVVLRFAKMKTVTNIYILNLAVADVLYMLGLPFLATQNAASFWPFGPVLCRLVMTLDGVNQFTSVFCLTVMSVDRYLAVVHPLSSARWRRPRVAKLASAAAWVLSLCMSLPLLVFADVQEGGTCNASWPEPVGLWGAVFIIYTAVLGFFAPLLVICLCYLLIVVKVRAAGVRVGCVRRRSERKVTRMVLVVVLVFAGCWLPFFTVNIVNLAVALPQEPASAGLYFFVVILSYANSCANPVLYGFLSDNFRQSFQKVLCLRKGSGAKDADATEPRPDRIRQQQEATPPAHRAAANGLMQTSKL
Protocol: as §3, §4, §5

[2] = Half-life determination in mouse plasma (LC-MS); format: in vitro ADME; settings: 37° C.
Procedure, shortened: as §1

K562 cells = assay: In vivo growth assay, K562 human chronic myelogenous leukemia xenograft in nude mice; settings: female athymic nude mice, qwk×3, i.v.; 165.6, 138, 55.2 mg/kg
Text: FIG. 2: Effects of Example 5C against tumor model human chronic myelogenous leukemia K562 in female athymic nude mice.
(§2) In other experiments, animals were implanted with human xenografts derived from NCI-H345 cells (human small cell lung carcinoma; […]), A549 cells (non-small cell lung carcinoma), MDA-MB-231 cells (breast cancer) and K562 cells (human chronic myelogenous leukemia; […]) and then subjected to treatment with the compounds of Formula I or II and the appropriate controls as described herein.

NCI-H345 cells = assay: In vivo growth assay, NCI-H345 small cell lung carcinoma xenograft in nude mice; design: species or system human; settings: female athymic nude mice, qwk×3, i.v.; 165.6, 138, 55.2 mg/kg
Text: FIG. 3: Effects of Example 5C against small cell lung carcinoma tumor model H345 SCLC in female athymic nude mice.
as §2

Compound	tumor growth in vivo, NCI-H69 xenograft (FIG. 1) (NCI-H69 cells)	Ki (hSSTR-3)	half-life [1]	Ki (hSSTR-1)	Ki (hSSTR-2)	Ki (hSSTR-4)	Ki (hSSTR-5)	half-life [2]	tumor growth in vivo, K562 human chronic myelogenous leukemia xenograft (K562 cells)	tumor growth in vivo, H345 small cell lung carcinoma xenograft (NCI-H345 cells)
Camptothecin-rvD-Asp-Suc-(Doc)4-Aepa-D-Phe-c(Cys-Tyr-D-Trp-Lys-Abu-Cys)-Thr-NH2 Camptothecin-rvAsp-Suc-(Doc)4-Aepa-D-Phe-c(Cys-Tyr-D-Trp-Lys-Abu-Cys)-Thr-NH2 [Example 5B]	Suppression of tumor growth									
CC[C@@]1(OC(=O)CNC(=O)CCCC(=O)NCCOCCOCC(=O)NCCOCCOCC(=O)NCCOCCOCC(=O)NCCOCCOCC(=O)N[C@@H](CCCCN)C(=O)N[C@H](Cc2ccc(O)cc2)C(=O)N[C@H](Cc2ccc(O)cc2)C(=O)N[C@H]2CSSC[C@@H](C(N)=O)NC(=O)[C@H]([C@@H](C)O)NC(=O)[C@H](CCCCN)NC(=O)[C@@H](Cc3c[nH]c4ccccc34)NC(=O)[C@H](Cc3ccccc3)NC(=O)[C@H](Cc3ccccc3)NC2=O)C(=O)OCc2c1cc1n(c2=O)Cc2cc3ccccc3nc2-1 [Example 4, Camptothecin-rvGly-Glut-(Doc)4-Lys-D-Tyr-D-Tyr-c(Cys-Phe-Phe-D-Trp-Lys-Thr-Cys)-NH2] ({X1-Gly-Glutaryl-AEEA-AEEA-AEEA-AEEA}-K[dY][dY]CFF[dW]KTC-NH2; disulfide 4-10)		≥ 1000 nM	3.2 h	≥ 1000 nM	9.38 nM	≥ 1000 nM	481 nM	4.4 h		
CC[C@@H]1NC(=O)[C@H](CCCCN)NC(=O)[C@@H](Cc2c[nH]c3ccccc23)NC(=O)[C@H](Cc2ccc(O)c(I)c2)NC(=O)[C@@H](NC(=O)[C@@H](Cc2ccc(O)cc2)NC(=O)[C@@H](Cc2ccc(O)cc2)NC(=O)[C@H](CCCCN)NC(=O)COCCOCCNC(=O)COCCOCCNC(=O)COCCOCCNC(=O)COCCOCCNC(=O)COCCOCCNC(=O)COCCOCCNC(=O)CCCC(=O)NCC(=O)O[C@]2(CC)C(=O)OCc3c2cc2n(c3=O)Cc3cc4ccccc4nc3-2)CSSC[C@@H](C(=O)N[C@H](C(N)=O)[C@@H](C)O)NC1=O [Example 2, Camptothecin-rvGly-Glut-(Doc)6-Lys-D-Tyr-D-Tyr-c(Cys-3-(I)Tyr-D-Trp-Lys-Abu-Cys)-Thr-NH2] ({X1-Gly-Glutaryl-AEEA-AEEA-AEEA-AEEA-AEEA-AEEA}-K[dY][dY]C[Tyr(3-I)][dW]K[Abu]CT-NH2; disulfide 4-9)		125 nM	2.2 h	≥ 1000 nM	0.36 nM	≥ 1000 nM	3 nM	4.6 h		
Camptothecin-rvD-Asp-Suc-(Doc)4-Aepa-D-Phe-c(Cys-Tyr-D-Trp-Lys-Abu-Cys)-Thr-NH2 [Example 5C]	Suppression of tumor growth								Suppression of tumor growth; also recorded: suppressed growth	Suppression of tumor growth; also recorded: suppressed growth
CC[C@@H]1NC(=O)[C@H](CCCCN)NC(=O)[C@@H](Cc2c[nH]c3ccccc23)NC(=O)[C@H](Cc2ccc(O)c(I)c2)NC(=O)[C@@H](NC(=O)[C@@H](Cc2ccc(O)cc2)NC(=O)[C@@H](Cc2ccc(O)cc2)NC(=O)[C@H](CCCCN)NC(=O)COCCOCCNC(=O)COCCOCCNC(=O)COCCOCCNC(=O)COCCOCCNC(=O)CCCC(=O)NCC(=O)O[C@]2(CC)C(=O)OCc3c2cc2n(c3=O)Cc3cc4ccccc4nc3-2)CSSC[C@@H](C(=O)N[C@H](C(N)=O)[C@@H](C)O)NC1=O [Example 3, Camptothecin-rvGly-Glut-(Doc)4-Lys-D-Tyr-D-Tyr-c(Cys-3-(I)Tyr-D-Trp-Lys-Abu-Cys)-Thr-NH2] ({X1-Gly-Glutaryl-AEEA-AEEA-AEEA-AEEA}-K[dY][dY]C[Tyr(3-I)][dW]K[Abu]CT-NH2; disulfide 4-9)		94 nM	3.8 h	≥ 1000 nM	0.1 nM	≥ 1000 nM	3.86 nM	5.7 h		
CC[C@@H]1NC(=O)[C@H](CCCCN)NC(=O)[C@@H](Cc2c[nH]c3ccccc23)NC(=O)[C@H](Cc2ccc(O)cc2)NC(=O)[C@@H](NC(=O)[C@@H](Cc2ccccc2)NC(=O)CN2CCN(CCNC(=O)COCCOCCNC(=O)COCCOCCNC(=O)COCCOCCNC(=O)COCCOCCNC(=O)CCC(=O)NCCCCCCC(=O)O[C@]3(CC)C(=O)OCc4c3cc3n(c4=O)Cc4cc5ccccc5nc4-3)CC2)CSSC[C@@H](C(=O)N[C@H](C(N)=O)[C@@H](C)O)NC1=O [Example 18, Camptothecin-rvAhp-Suc-(Doc)4-Aepa-D-Phe-cyclo(Cys-Tyr-D-Trp-Lys-Abu-Cys)-Thr-NH2]			8 h	≥ 1000 nM			≥ 1000 nM	16.2 h		
